Experimental data taken from patent US12441691B2 (Cytokinetics, Inc., priority 2020, dated 2025).

What was measured:
[1] = test system: ankle plantarflexor muscle; assay: Rat isometric ankle plantarflexor muscle force; format: in vivo, Sprague Dawley rats; details: continuous intravenous infusion over sixty minutes, 30 Hz nerve stimulation, estimated EC50 = concentration at which muscle force is 50% of pre-dose maximum tension
Description: Female Sprague Dawley rats were placed under a stable anesthetic plane with inhaled isoflurane (1-5%). One incision was made on the mid-thigh region of the right leg to expose the sciatic nerve. To prevent co-contraction of the ankle dorsiflexors, an additional incision was made lateral to the patella to isolate and sever the peroneal nerve. Rats were then placed on a temperature-maintained in situ muscle analysis rig (Aurora Scientific, Model 806C). The knee was immobilized in a clamp between two sharpened screws and the foot was taped to a footplate attached to a force transducer (Aurora Scientific, Ontario, Canada). Stainless steel needle electrodes (0.10 mm) were hooked around the exposed sciatic nerve. Isometric ankle plantarflexor muscle contractile force was assessed with the ankle joint at 90° flexion. A 30 Hz electrical stimulation (under supramaximal voltage conditions) was applied to the nerve and the resulting muscle force was recorded via a servomotor. A pre-dose 30 Hz force response was established as the baseline force. A pre-dose 150 Hz force response was established as the maximum isometric force. Compounds were formulated in 50% polyethylene glycol (PEG): 16% Cavitron: 10% dimethylacetamide (DMA) and administered by continuous intravenous infusion over a sixty minute period. The muscle force response to compound was measured every two minutes over the dosing period. Data were reported as an estimated EC50 value, which is the concentration at which muscle force is 50% of the pre-dose maximum tension. In Table 10, “Example Compound” refers to the compound labeled with the same number in Table 2.

[2] = test system: rabbit skeletal myofibrils (fast skeletal myofibrils); assay: Activation of fast skeletal myofibrils (PUMA assay, AC1.4); format: biochemical; details: calcium at pCa25, AC1.4 = concentration at which the compound increased the enzymatic activity
Method in brief: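 In 12 mM PIPES pH 6.8 with 2 mM MgCl2 and 1 mM DTT, Triton-washed rabbit skeletal myofibrils were run at the pCa25 calcium level. Myosin-made ADP was recycled through a PK/LDH coupled system; NADH loss read at 340 nm.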

| Structure (SMILES) | EC50 [1] | AC1.4 [2] |
| --- | --- | --- |
| CC[C@H](C)[C@H]1C(=O)Nc2ccccc2CN1C(=O)CC(N)=O [Compound 1, 3-((S)-3-((S)-sec-Butyl)-2-oxo-1,2,3,5-tetrahydro-4H-benzo[e][1,4]diazepin-4-yl)-3-oxopropanamide] | 26.2 µM | 0.91 µM |
| CC[C@H](C)[C@H]1C(=O)Nc2ccccc2CN1/C(N)=N/C#N [Compound 2, (S,E)-3-((S)-sec-Butyl)-N′-cyano-2-oxo-1,2,3,5-tetrahydro-4H-benzo[e][1,4]diazepine-4-carboximidamide] | 19.1 µM | 0.08 µM |
| CC[C@H](C)[C@H]1C(=O)Nc2ccccc2CN1CC(N)=O [Compound 6, 2-((S)-3-((S)-sec-Butyl)-2-oxo-1,2,3,5-tetrahydro-4H-benzo[e][1,4]diazepin-4-yl)acetamide] | 20.3 µM | 0.89 µM |
| CC(C)[C@H]1C(=O)Nc2ccccc2CN1C(N)=O [Compound 7, (S)-3-Isopropyl-2-oxo-1,2,3,5-tetrahydro-4H-benzo[e][1,4]diazepine-4-carboxamide] | 41.1 µM | 1.80 µM |
| CC[C@H](C)[C@H]1C(=O)Nc2cc(F)cc(F)c2CN1C(N)=O [Compound 8, (S)-3-((S)-sec-butyl)-6,8-difluoro-2-oxo-1,2,3,5-tetrahydro-4H-benzo[e][1,4]diazepine-4-carboxamide] | 15.2 µM | 0.37 µM |
| CC[C@H](C)[C@H]1C(=O)Nc2ccc(F)cc2CN1C(N)=O [Compound 9, (S)-3-((S)-sec-Butyl)-7-fluoro-2-oxo-1,2,3,5-tetrahydro-4H-benzo[e][1,4]diazepine-4-carboxamide] | 19.1 µM | 0.28 µM |
| CC[C@H](C)[C@H]1C(=O)Nc2cncc(F)c2CN1C(N)=O [Compound 10, (S)-3-((S)-sec-Butyl)-6-fluoro-2-oxo-1,2,3,5-tetrahydro-4H-pyrido[3,4-e][1,4]diazepine-4-carboxamide] | 18.8 µM | 0.71 µM |
| CC[C@H](C)[C@H]1C(=O)Nc2cnccc2CN1C(N)=O [Compound 12, (S)-3-((S)-sec-butyl)-2-oxo-1,2,3,5-tetrahydro-4H-pyrido[3,4-e][1,4]diazepine-4-carboxamide] | 38.7 µM | 0.84 µM |
| CC[C@H](C)[C@H]1C(=O)Nc2ccccc2CN1C(=O)N1CC(O)C1 [Compound 32, (S)-3-((S)-sec-Butyl)-4-(3-hydroxyazetidine-1-carbonyl)-1,3,4,5-tetrahydro-2H-benzo[e][1,4]diazepin-2-one] | 12.6 µM | 0.13 µM |
| CC[C@H](C)[C@H]1C(=O)Nc2ccccc2CN1C(=O)CCO [Compound 49, (S)-3-((S)-sec-butyl)-4-(3-hydroxypropanoyl)-1,3,4,5-tetrahydro-2H-benzo[e][1,4]diazepin-2-one] | 28 µM | 0.55 µM |
| CC(C)[C@H]1C(=O)Nc2ccccc2CN1/C(N)=N/C#N [Compound 64, (S,E)-N′-Cyano-3-isopropyl-2-oxo-1,2,3,5-tetrahydro-4H-benzo[e][1,4]diazepine-4-carboximidamide] | 20.1 µM | 0.53 µM |
| CC[C@H](C)[C@H]1C(=O)Nc2cccc(F)c2CN1C(N)=O [Compound 65, (S)-3-((S)-sec-butyl)-6-fluoro-2-oxo-1,2,3,5-tetrahydro-4H-benzo[e][1,4]diazepine-4-carboxamide] | 11.3 µM | 0.37 µM |
| CC[C@H](C)[C@H]1C(=O)Nc2cnccc2CN1/C(N)=N/C#N [Compound 82, (S,E)-3-((S)-sec-butyl)-N′-cyano-2-oxo-1,2,3,5-tetrahydro-4H-pyrido[3,4-e][1,4]diazepine-4-carboximidamide] | 21.4 µM | 0.24 µM |
| CC[C@H](C)[C@H]1C(=O)Nc2ccccc2CN1C(=O)N[C@H]1CCN(C)C1 [Compound 144, (S)-3-((S)-sec-butyl)-N-((S)-1-methylpyrrolidin-3-yl)-2-oxo-1,2,3,5-tetrahydro-4H-benzo[e][1,4]diazepine-4-carboxamide] | 10.5 µM | 0.28 µM |
| CC(C)[C@H]1C(=O)Nc2cc(F)ccc2CN1C(N)=O [Compound 357, (S)-8-fluoro-3-isopropyl-2-oxo-1,2,3,5-tetrahydro-4H-benzo[e][1,4]diazepine-4-carboxamide] | 58.3 µM | 1.69 µM |
| CC[C@H](C)[C@H]1C(=O)Nc2cncc(F)c2CN1C(=O)Nc1ccn(C)n1 [Compound 368, (S)-3-((S)-sec-butyl)-6-fluoro-N-(1-methyl-1H-pyrazol-3-yl)-2-oxo-1,2,3,5-tetrahydro-4H-pyrido[3,4-e][1,4]diazepine-4-carboxamide] | – | 0.41 µM |
| CC[C@H](C)[C@H]1C(=O)Nc2cncc(F)c2CN1C(=O)Nc1cc[nH]n1 [Compound 369] | – | 0.24 µM |
| CC[C@H](C)[C@H]1C(=O)Nc2cncc(F)c2CN1C(=O)N1CC(O)C1 [Compound 370, (S)-3-((S)-sec-butyl)-6-fluoro-4-(3-hydroxyazetidine-1-carbonyl)-1,3,4,5-tetrahydro-2H-pyrido[3,4-e][1,4]diazepin-2-one] | – | 0.88 µM |
| CC[C@H](C)[C@H]1C(=O)Nc2cncc(F)c2CN1C(=O)COCc1ccccc1 [Compound 371, (S)-4-(2-(benzyloxy)acetyl)-3-((S)-sec-butyl)-6-fluoro-1,3,4,5-tetrahydro-2H-pyrido[3,4-e][1,4]diazepin-2-one] | – | 0.50 µM |
| CC[C@H](C)[C@H]1C(=O)Nc2ccccc2CN1c1c(N2CCOCC2)c(=O)c1=O [Compound 372, 3-((S)-3-((S)-sec-butyl)-2-oxo-1,2,3,5-tetrahydro-4H-benzo[e][1,4]diazepin-4-yl)-4-morpholinocyclobut-3-ene-1,2-dione] | – | 0.18 µM |
| CC[C@H](C)[C@H]1C(=O)Nc2cnccc2CN1C(=O)c1cnn(C)c1 [Compound 373, (S)-3-((S)-sec-butyl)-4-(1-methyl-1H-pyrazole-4-carbonyl)-1,3,4,5-tetrahydro-2H-pyrido[3,4-e][1,4]diazepin-2-one] | – | 0.66 µM |
| CC[C@H](C)[C@H]1C(=O)Nc2cnccc2CN1c1c(NCCO)c(=O)c1=O [Compound 374, 3-((S)-3-((S)-sec-butyl)-2-oxo-1,2,3,5-tetrahydro-4H-pyrido[3,4-e][1,4]diazepin-4-yl)-4-((2-hydroxyethyl)amino)cyclobut-3-ene-1,2-dione] | – | 0.42 µM |
| CC[C@H](C)[C@H]1C(=O)Nc2cnccc2CN1c1c(N2CC(O)C2)c(=O)c1=O [Compound 375, 3-((S)-3-((S)-sec-butyl)-2-oxo-1,2,3,5-tetrahydro-4H-pyrido[3,4-e][1,4]diazepin-4-yl)-4-(3-hydroxyazetidin-1-yl)cyclobut-3-ene-1,2-dione] | – | 0.26 µM |
| CC[C@H](C)[C@H]1C(=O)Nc2cnccc2CN1c1c(NC)c(=O)c1=O [Compound 376, 3-((S)-3-((S)-sec-butyl)-2-oxo-1,2,3,5-tetrahydro-4H-pyrido[3,4-e][1,4]diazepin-4-yl)-4-(methylamino)cyclobut-3-ene-1,2-dione] | – | 0.18 µM |
| CC[C@H](C)[C@H]1C(=O)Nc2cnccc2CN1c1c(N(C)C)c(=O)c1=O [Compound 377, 3-((S)-3-((S)-sec-butyl)-2-oxo-1,2,3,5-tetrahydro-4H-pyrido[3,4-e][1,4]diazepin-4-yl)-4-(dimethylamino)cyclobut-3-ene-1,2-dione] | – | 0.29 µM |
| CC[C@H](C)[C@H]1C(=O)Nc2cnccc2CN1c1c(N)c(=O)c1=O [Compound 378, 3-amino-4-((S)-3-((S)-sec-butyl)-2-oxo-1,2,3,5-tetrahydro-4H-pyrido[3,4-e][1,4]diazepin-4-yl)cyclobut-3-ene-1,2-dione] | – | 0.15 µM |
| CC[C@H](C)[C@H]1C(=O)Nc2cnccc2CN1C(=O)N1CC(O)C1 [Compound 379, (S)-3-((S)-sec-butyl)-4-(3-hydroxyazetidine-1-carbonyl)-1,3,4,5-tetrahydro-2H-pyrido[3,4-e][1,4]diazepin-2-one] | – | 0.92 µM |
| CC[C@H](C)[C@H]1C(=O)Nc2cnccc2N1/C(=N/C#N)Oc1ccccc1 [Compound 380, phenyl (S,Z)-2-((S)-sec-butyl)-N-cyano-3-oxo-3,4-dihydropyrido[3,4-b]pyrazine-1(2H)-carbimidate] | – | 1.25 µM |
| CC[C@H](C)[C@H]1C(=O)Nc2cnccc2CN1c1c(NCCOC)c(=O)c1=O [Compound 381, 3-((S)-3-((S)-sec-butyl)-2-oxo-1,2,3,5-tetrahydro-4H-pyrido[3,4-e][1,4]diazepin-4-yl)-4-((2-methoxyethyl)amino)cyclobut-3-ene-1,2-dione] | – | 0.48 µM |
